Values quoted from earlier work in patent publication US11325944B2 (priority 2017, dated 2022).
[ ]: non-standard residue; d: D form.

Assays:
[1] = tested on: KOR
[2] = target: KOR (Homo sapiens, UniProt P41145)
[3] = target: DOR; conditions: δ opioid receptor, CHO cell membranes; read-out: Kd of radioligand

Chain of KOR (Homo sapiens, UniProt P41145) (P41145 whole entry): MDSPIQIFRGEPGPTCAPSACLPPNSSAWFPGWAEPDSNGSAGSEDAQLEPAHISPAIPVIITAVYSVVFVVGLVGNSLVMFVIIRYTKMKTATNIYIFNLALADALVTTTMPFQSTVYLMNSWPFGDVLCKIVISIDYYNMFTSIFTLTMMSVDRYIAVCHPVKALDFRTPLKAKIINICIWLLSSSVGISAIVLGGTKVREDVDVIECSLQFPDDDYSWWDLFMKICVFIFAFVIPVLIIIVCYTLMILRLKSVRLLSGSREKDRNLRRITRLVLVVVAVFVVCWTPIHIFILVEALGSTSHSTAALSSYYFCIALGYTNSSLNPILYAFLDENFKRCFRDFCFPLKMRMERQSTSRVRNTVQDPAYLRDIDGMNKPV

## cyclo [CJ-15,208, cyclo [Phe-D-Pro-Phe-Trp]]
[1]
  agonist (antinociceptive) activity in vivo: mild agonist (antinociceptive) activity

## cyclo(F[dP]F[dW]) [[D-Trp]CJ-15,208]
[2]
  selectivity for KOR over MOR and DOR: selective activity against the kappa opioid receptor (KOR) over mu opioid receptors (MOR) and delta opioid receptors (DOR)
[2]; in vitro
  KOR antagonism in vitro: antagonize KOR in vitro
[1]; in vivo
  KOR antagonism: exhibited KOR antagonism

## cyclo[D-Pen^2, D-Pen]enkephalin [[^3H]-DPDPE]
[3]
  Kd: 1.76 nM
